This passage reports IC50 results from patent US5358946A, “Heterocycle-substituted amides, carbamates and ureas as agents for the treatment of atherosclerosis” (The Du Pont Merck Pharmaceutical Company, priority 1992, dated 1994).

Assay [1] deals with T1, acyl-CoA: cholesterol acyltransferase (ACAT) (Rattus norvegicus, UniProt Q7TQM4).
T1 construct: Microsomes were obtained by differential centrifugation; from tissue; host or cells: liver microsomes of male Sprague Dawley rats
T1 sequence (Q7TQM4 1-524): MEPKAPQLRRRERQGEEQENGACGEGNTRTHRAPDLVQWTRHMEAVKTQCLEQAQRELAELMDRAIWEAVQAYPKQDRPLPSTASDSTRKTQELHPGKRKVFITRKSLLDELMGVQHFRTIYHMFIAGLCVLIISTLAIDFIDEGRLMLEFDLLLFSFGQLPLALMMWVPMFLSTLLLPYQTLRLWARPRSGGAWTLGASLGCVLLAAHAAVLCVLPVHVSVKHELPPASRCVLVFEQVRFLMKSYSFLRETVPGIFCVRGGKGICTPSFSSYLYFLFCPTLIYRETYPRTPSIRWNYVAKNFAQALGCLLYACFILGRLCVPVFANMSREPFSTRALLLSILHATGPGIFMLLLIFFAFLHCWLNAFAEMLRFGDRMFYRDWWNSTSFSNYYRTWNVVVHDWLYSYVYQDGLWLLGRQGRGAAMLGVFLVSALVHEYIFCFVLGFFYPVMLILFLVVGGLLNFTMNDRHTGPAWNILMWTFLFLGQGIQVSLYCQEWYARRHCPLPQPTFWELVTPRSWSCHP
Nature of the assay: Inhibition of Acyl-CoA: Cholesterol Acyltransferase (ACAT) in hepatic microsomes (in vitro hepatic ACAT activity). It counts as biochemical, rat (male Sprague Dawley). The conditions noted are these: 14C-oleoyl-CoA, 15 min preincubation at 37° C., pH 7.4, read-out: Inhibition of Cholesterol Esterification (IC50). The method, then: The ability of the compounds to inhibit ACAT, the enzyme responsible for the intracellular synthesis of cholesteryl esters, was tested as follows. Male Sprague Dawley rats weighing 150-300 g, were fed rat chow ad libitum. The animals were fasted for twenty-four hours prior to being sacrificed by decapitation. The livers were perfused in situ with 50 ml of cold 0.25M sucrose, excised, and homogenized in three volumes of 0.1M phosphate buffer, pH 7.4, that contained 0.5 mM EDTA (ethylenediaminetetraacetic acid), 1.0 mM glutathione, 0.25M sucrose and […]. Microsomes were obtained by differential centrifugation; the supernatant from an initial spin at 15,000×g for 15 minutes was centrifuged at 105,000×g for 1 hour to pellet the microsomes. The microsomes were suspended in homogenization buffer, reisolated by centrifugation, and stored at -70° C. Microsomes were used within one month of preparation.
The control assay in a final volume of 200 μl consisted of 200 μg of microsomal protein, 75μ<^14 C-oleoyl-CoA (10,000 dpm/nmol) in 0.1M phosphate, pH 7.4, that contained 1 mM glutathione. Compounds were added in 5 μl of DMSO (dimethyl sulfoxide) and additional controls were run with DMSO only. All components, except the oleoyl-CoA, were preincubated for 15 min. at 37° C. prior to the initiation of the reaction by the addition of oleoyl-CoA. The assay was terminated after 10 min. by the addition of 4 ml of chloroform:methanol (2:1, v/v). 20,000 dpm of 3H-choledsteryl oleate and 10 μg of unlabeled cholesteryl oleate and oleic acid were added as an internal standard and carriers, respectively. After allowing 10 min. for lipid extraction, 0.8 ml of deionized water was added to separte the solution into two phases. The lower chloroform phase was collected, dried under nitrogen and resuspended in 2 ml of hexane:diethyl ether (97:3 v/v). The lipids were then loaded onto BAKERSBOND spe* silica gel columns. Extracts were collected in scintillation vials and counted for radioactivity. The specific activity of ACAT in the control incubation averaged 260 pmol/min/mg microsomal protein.

The target of assay [2] is T2, ACAT (Mus musculus, UniProt Q61263).
T2 construct: endogenous in cells; host or cells: J774.A1 (murine macrophage-like)
T2 sequence (Q61263 1-540): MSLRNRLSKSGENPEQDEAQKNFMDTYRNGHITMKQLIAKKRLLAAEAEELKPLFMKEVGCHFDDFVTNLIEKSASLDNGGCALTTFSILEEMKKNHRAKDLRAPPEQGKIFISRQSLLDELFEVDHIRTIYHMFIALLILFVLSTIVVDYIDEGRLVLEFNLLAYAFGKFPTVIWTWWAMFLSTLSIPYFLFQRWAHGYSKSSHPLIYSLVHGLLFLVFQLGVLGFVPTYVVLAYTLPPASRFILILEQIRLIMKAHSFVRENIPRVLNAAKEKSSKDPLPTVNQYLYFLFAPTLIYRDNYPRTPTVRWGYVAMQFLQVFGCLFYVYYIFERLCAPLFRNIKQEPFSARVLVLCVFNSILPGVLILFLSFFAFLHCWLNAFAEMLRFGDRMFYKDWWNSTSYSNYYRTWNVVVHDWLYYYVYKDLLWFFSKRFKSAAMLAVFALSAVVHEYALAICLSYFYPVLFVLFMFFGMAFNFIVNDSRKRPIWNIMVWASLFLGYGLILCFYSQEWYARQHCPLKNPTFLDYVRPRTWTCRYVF
Kind of assay: Inhibition of cholesterol esterification in the murine macrophage-like cell line J774.A1. It is filed as cell-based. The conditions noted are these: J774.A1 cells, ac-LDL loaded, 14C-oleic acid pulse. The method, then: The esterification of cholesterol was determined in the murine macrophage-like cell line J774.A1. Cells were seeded in 35 mm wells at a density of 300,000 cells per well in 2 mls of Dulbecco's Eagle Medium (DMEM) supplemented with 10% fetal bovine serum (FBS). Cells were incubated at 37° C. in an atmosphere of 5% CO2 and 93% humidity. After […] the media was changed to 0.68 mls 10% FBS-DMEM containing 34 μg of acetylated human low density lipoprotein (ac-LDL) to increase the intracellular concentration of cholesterol and promote esterification. At 41 hours, various inhibitors were added to the cells in DMSO (10 μl/ml maximum). At 43 hours, the cells were pulsed with 0.1 mM ^14 C-oleic acid (10,000 dpm/nmol) complexed with BSA (bovine serum albumin) to follow cholesterol ester formation. The experiment was terminated at 45 hours by washing the monolayers 3 times with 3 ml of Tris-buffered saline at 4° C. The lipids were extracted by incubating the monolayers with 1.5 ml of hexane: isopropanol (3:2, v/v) for 30 min. under gentle agitation. During this period, 10,000 dpm ^3 H-cholesterol oleate and 10 μg of unlabeled cholesteryl oleate, oleic acid, triolein and cholesterol were added as an […] standard and carriers. The organic solvent was removed and the cells were washed with an additional 1.0 ml of hexane: isopropanol which was combined with the original extract. The cells were allowed to dry overnight, digested with 2.0 ml of 0.2N sodium hydroxide for 1 hour and an aliquot of the solubilized protein used for protein determination using the Lowry method. […] Extracts were collected in scintillation vials to determine the amount of radioactivity. The conversion of oleic acid to cholesteryl ester in the control averaged 0.54 mmol/hour/mg protein and was increased upon the addition of ac-LDL to about 10.689±0.69 mmol/hour/mg protein.

pIC50: −log10 of the molar value.

By pIC50 is commonly meant −log10 of the IC50, conventionally taken in molar units.

Regarding `O=C(Nc1ccc(F)cc1F)N(CCCCCSc1nc(-c2ccccc2)c(-c2ccccc2)[nH]1)CCN1CCOCC1` [Example 161, N'-(2,4-difluorophenyl)-N-[5-(4,5-diphenyl-1H-imidazol-2-ylthio)pentyl]-N-[2-(4-morpholinyl)ethyl]-urea], the pIC50 was 7.18 in assay [1] and 6.06 in assay [2].
`CCCCN(C)CCN(CCOCCSc1nc(-c2ccc(OC)cc2)c(-c2ccc(OC)cc2)[nH]1)C(=O)Nc1ccc(F)cc1F` [Example 32, N-[2-(2-(4,5-bis(4-methoxyphenyl)-1H-imidazol-2-ylthio)ethoxy)ethyl]-N-[2-(N-butyl-N-methylamino)ethyl]-N'-(2,4-difluorophenyl) urea]: the results for the negative logarithm of the IC50 (pIC50) in assay [1] and in assay [2] were 5.82 and 6.20, respectively.
